These are literature values, as cited in patent EP0313535B1 (Bristol-Myers Squibb Company, priority 1987, dated 1989).

The conditions of data set [1]: metabolite of buspirone.

Consider `O=C1CC2(CCCC2)CC(=O)N1CCCCN1CCN(c2ncc(O)cn2)CC1` [5-OH-buspirone], for which the pharmacological activity result in data set [1] is recorded as “no pharmacological activity”. In the case of `c1cnc(N2CCNCC2)nc1` [Example 1-PP, 1-(2-pyrimidinyl)-piperazine], the “activity relative to buspirone per se” value in data set [1] was 20-25%. Consider `O=C1CC2(CCCC2)CC(=O)N1CCCCN1CCN(c2ncccn2)CC1` [buspirone, Buspirone], for which the biological half life (in man (Mayol et al. 1985)) was 2-11 hours. For the same molecule, the “variation of the maximum plasma concentration” value (interindividual (Gammans et al. 1986)) is listed as “up to 10 fold”.
